In patent US20240197722A1, “ANTICANCER COMPOSITION INDUCING CELL SENESCENCE AND CELL DEATH” (OSTEONEUROGEN INC., priority 2021, published 2024):

Columns and labels:
[1] = tested on: A549 cells; experiment: Immunocytochemistry for cell senescence morphology in A549 cells; format: cell-based; conditions: for effect of inducing cancer cell-specific cell senescence: summary of chromone scaffold derivatives, FIG. 21; for cell flatness (morphological change of cell senescence): A549, 20 μM each, 72 hours, FIG. 1
Description: The cells were incubated with Rhodamine Phalloidin (Thermo Fisher, Massachusetts, US) for 4 hours at room temperature. After washing, the cells were incubated with Alexa Fluor 488 (Abcam, Cambridge, UK)-conjugated secondary antibody. Images were analyzed by using EVOS M7000 (Invitrogen, CA, USA). Nuclei were counterstained with DAPI.

[2] = tested on: NHLF cells; experiment: LDH cytotoxicity assay in NHLF; format: cell-based; conditions: Homo sapiens, read-out: LDH: EC 50
Description: (iii) LDH cytotoxicity assay detected LDH release by using an LDH assay kit (Abcam, ab56393). […] Absorbance values were measured at 450 nm in a microplate reader.

[3] = tested on: NHLF cells; experiment: Mitochondrial membrane potential (MTMP) analysis in NHLF; format: cell-based, human; conditions: for apoptosis in normal cells: measured with MTMP, Caspase3 and LDH, FIG. 20
[4] = tested on: NHLF cells; experiment: Caspase-3 activity assay in NHLF; format: cell-based; conditions: Homo sapiens, read-out: Caspase3: EC 50
Description: (ii) Caspase-3 activity assay was measured by using a Caspase-3 assay kit (Abcam, ab37401). […] Thereafter, protein was measured with BCA (Thermo, 23227), and the protein was adjusted to 50 μg per 50 μL of cell lysis buffer. Afterwards, Caspase-3 activity was analyzed according to the manufacturer's protocol.

[5] = tested on: Normal human lung fibroblasts (NHLF); experiment: CCK-8 cell proliferation assay in normal human lung fibroblasts; format: cell-based; conditions: CCK-8, FIG. 19
[6] = tested on: PC3 cells; experiment: Caspase-3/7 activity (apoptosis) in PC3 cells; format: cell-based, human; conditions: PC3, Caspase-3/7 activity; for PC3 apoptosis: various concentrations
Description: Caspase-3/7 activity was measured by using a Caspase-3/7 assay kit (Promega, G8091). […] Afterwards, Caspase-3/7 activity was analyzed according to the manufacturer's protocol.

[7] = tested on: A549 cells; experiment: TUNEL and 7AAD apoptosis analysis of A549 cells; format: cell-based
Description: The TUNEL analysis was performed by using the TUNEL assay kit (Abcam, ab66110) according to the manufacturer's instructions. […] After 24 hours, the cells were harvested and fixed in cold 70% ethanol, and 50 μL of a DNA labeling solution (10 μL of TdT reaction buffer, […], 8 μL of Br-dUTP, 32.5 μL of ddH2O) was added thereto. After 1-hour incubation at 37° C., the cells were washed twice with 300 μL of rinse buffer, and an antibody solution (5 μL of Anti-BrdU-Red antibody, 95 μL rinse buffer) was prepared and added to the washed cells, and the cells were incubated in the dark at room temperature for 30 minutes. 300 μL of 7-AAD/RNase solution was added at last. Each sample was analyzed by using Accuri C6 Plus (BD Bioscience).

[8] = tested on: A549 cells; experiment: Mitochondrial membrane potential (TMRE) analysis in A549 cells
[9] = tested on: A549 cells; experiment: Cell changes of TGFβ-stimulated A549 cells; format: cell-based; conditions: TGFβ-stimulated A549, 10 μM
[10] = tested on: PC3; experiment: CCK-8 cell proliferation assay in PC3 cells; format: cell-based; conditions: Homo sapiens, PC-3; PC3, CCK-8, 72 hours
[11] = tested on: PC3 cells; experiment: Immunocytochemistry for multinucleation of PC3 cells; format: cell-based, human; conditions: PC3, treated by concentration
[12] = tested on: PANC1; experiment: CCK-8 cell proliferation assay in PANC1 cells; format: cell-based, human; conditions: for IC50: Homo sapiens, PANC-1, PANC1, CCK-8, 72 hours
[13] = tested on: H358 cells; experiment: Microscopic observation of H358 cells; format: cell-based; conditions: H358, 10 μM, 72 hours
Description: (§1) H358 cells were seeded in 96-well plates at a concentration of 3×10^4 cells/well for 24 hours.

[14] = tested on: H358 cells; experiment: CCK-8 cell proliferation assay in H358 cells; format: cell-based; conditions: for inhibition of proliferation: H358, 30 μM or more, 72 hours
Description: as §1

[15] = tested on: H1299 cells; experiment: Immunocytochemistry for multinucleation of H1299 cells; format: cell-based; conditions: H1299, treated by concentration
[16] = tested on: A549 cells; experiment: PI staining cell cycle analysis of A549 cells; format: cell-based; conditions: A549, 50 μM
Description: After 24 hours, the cells were harvested and fixed in cooled 70% ethanol, and then stained with propidium iodide containing 200 ug/mL RNase (Abcam, 139418) in the dark at 37° C. for 30 minutes. Each phase of the cell cycle was identified by using Accuri C6 Plus (BD Bioscience).

[17] = tested on: MCF7; experiment: CCK-8 cell proliferation assay in MCF7 cells; format: cell-based; conditions: Homo sapiens; MCF7, CCK-8, 72 hours
[18] = tested on: PANCI cells; experiment: Immunocytochemistry for multinucleation of PANC1 cells; format: cell-based, human; conditions: PANC1, treated by concentration
[19] = tested on: A549 cells; experiment: Intracellular ROS (H2DCFDA) in A549 cells; format: cell-based; conditions: A549, various concentrations, 24 hours
Description: To this end, 1×10^4 cells/mL of A549 cells were dispensed in 96-well plates, and after 24 hours, the cells were treated with 10 μM H2DCFDA (Invitrogen, CA) and incubated at 37° C. in the dark for 1 hour. […] Intracellular ROS were examined by fluorescence microscopy (Thermo, MA) and quantified by fluorescence spectroscopy (Perkin Elmer, MA).

[20] = tested on: A549 cells; experiment: Immunocytochemistry of p53, p21 and p16 in A549 cells; format: cell-based
Description: A549 cell line was treated with 1, 5, 10 and 20 μM of the compound of the present invention (ONG41008), respectively, and after 24 or 72 hours, the cells were fixed by using 4% paraformaldehyde, permeabilized with 0.4% TritonX100 and blocked with 1% BSA. The cells were incubated with Anti-p53 (Cell Signaling Technology, Beverly, MA), Anti-p21 (Abcam, Cambridge, UK) and Anti-p16-INK4A (Proteintech, IL, USA) at room temperature for 4 hours. After washing, the cells were incubated with Alexa Fluor 488 (Abcam, Cambridge, UK)-conjugated secondary antibody. Images were analyzed by using EVOS M7000 (Invitrogen, CA, USA). Nuclei were counterstained with DAPI.

[21] = tested on: A549 cells; experiment: Western blot of p53, phospho-p53, p21 and p16 in A549 cells; format: cell-based
Description: After 24 hours, the cell lysates were clarified by centrifugation at 14,000×g for 10 minutes, and the supernatant was collected. Protein concentration was quantified by Bradford assay (Thermo Fisher, Massachusetts, USA). Afterwards, 25 μg of cellular protein was loaded onto a 10% SDS-PAGE gel and transferred to a nitrocellulose membrane. After blocking with 5% BSA, the membrane was incubated overnight at 4° C. with Anti-p53 (Cell Signaling Technology, Beverly, MA), Anti-phosphor-p53 (Cell Signaling Technology, Beverly, MA), Anti-p21 (Abcam, Cambridge, UK), Anti-p16-INK4A (Proteintech, IL, USA) and Anti-GAPDH (Abcam, Cambridge, UK). After thorough washing, the membrane was incubated with HRP-conjugated secondary antibody. Protein bands were visualized by using ECL reagent (Abfrontier, Korea) and Uvitec HD9 (UVITEC, UK).

[22] = tested on: normal cells; experiment: Additional Caspase3/7 analysis in normal cells; format: cell-based, human; conditions: data not shown
[23] = tested on: A549 cells; experiment: Immunocytochemistry for cell senescence and multinucleation of A549 cells over time; format: cell-based; conditions: A549, 10 μM
From the text: ZEB1, which is an epithelial-mesenchymal transition (EMT) positive regulator, was used as an expression control.

[24] = tested on: A549 cells; experiment: NAD+/NADH colorimetric assay in A549 cell lysates; format: cell-based
Description: To this end, total NAD was extracted and quantified from A549 cell lysates by using the NAD+/NADH Colorimetric Assay Kit (Abcam, ab65348) according to the manufacturer's protocol. 1×10^6 cells were lysed in 400 μL NAD/NADH extraction buffer, filtered through a 10 kD spin column (ab93349) and measured in pure water or 1/5 dilution. Briefly, the amount of total NAD was calculated by dividing the standard curve (pmol) by the sample volume (μL) added to the reaction wells and multiplying by the dilution factor.

[25] = tested on: A549 cells; experiment: Western blot of cell cycle kinases in A549 cells; format: cell-based; conditions: A549, 50 μM, 24 hours
[26] = tested on: MCF7 cells; experiment: Immunocytochemistry for multinucleation of MCF7 cells; format: cell-based, human; conditions: MCF7, treated by concentration
[27] = A549, mitochondrial membrane potential analysis

`COc1cc(-c2cc(=O)c3c(O)c(OC)c(O)cc3o2)ccc1O` [Jaceocidin, Jaceosidin] was tested, and the “effect of inducing cancer cell-specific cell senescence” value [1] was “do not exert any effect”.

`O=c1cc(-c2ccc(O)cc2)oc2cc(O)cc(O)c12` [Apigenin] was tested, and the “effect of inducing cancer cell-specific cell senescence” value [1] was “does not induce”.

`COC(=O)c1ccc2c(c1)NC(=O)/C2=C(\Nc1ccc(N(C)C(=O)CN2CCN(C)CC2)cc1)c1ccccc1` [nintedanib] was tested, and the EC50 [2] was 218 µM, the IC50 ([3]; Homo sapiens, read-out: MTMP: IC 50) was 41 µM and the “apoptosis in normal cells” value [3] was “induced strong apoptosis”. The EC50 [4] was 128 µM and the “cell proliferation of normal cells” value [5] was “inhibited cell proliferation”.

With `O=C(CCCCCCC(=O)Nc1ccccc1)NO` [SAHA, suberoylanilide hydroxamic acid] the PC3 apoptosis [6] was “induced PC3 apoptosis in a concentration-dependent manner”, the “apoptosis in normal cells” value [3] was “induced strong apoptosis” and the “cell proliferation of normal cells” value [5] was “inhibited cell proliferation”.

`COc1ccc(-c2cc(=O)c3c(O)c(OC)c(O)cc3o2)cc1OC` [ONG21001, Eupatilin] was tested, and the “cell flatness (morphological change of cell senescence)” value [1] was “specifically observed”.

`COc1c(O)cc2oc(-c3ccc(O)cc3)cc(=O)c2c1O` [Histidulin, Hispidulin] was tested, and the “effect of inducing cancer cell-specific cell senescence” value [1] was “do not exert any effect”.

For `COc1ccc(-c2cc(=O)c3c(O)c(OC)c(OCCN4CCNC(=O)C4)cc3o2)cc1OC` [ONG41008], the apoptosis ([7]; A549, 48 hours of treatment) was “apoptosis was observed”, the apoptosis ([7]; A549, 72 hours of treatment) was “clearly observed in a compound concentration-dependent manner” and the “difference between IC50 of SAHA and ONG41008” value ([8]; A549, FIG. 6) was ~20 fold. For the same compound, the “day until which inhibitory effect increased, all cells removed” value [8, 27] was 4 days, the “time at which decrease of cell viability / inhibitory effect started” value [8, 27] was 48 h and the “day from which a significant portion of cells started to die” value [9] was 6 days. The “day on which complete apoptosis was induced” value [9] was 15 days, the IC50 [10] was 32 µM and the multinucleation [11] was “observed”. For the same compound, the IC50 [12] was 11.8 µM, the “inhibitory effect on proliferation compared to paclitaxel” value ([12]; PANC1, 10 μM or more) was “more excellent inhibitory effect” and the EC50 ([6]; Homo sapiens, PC-3) was 20.4 µM. The PC3 apoptosis [6] was “induced PC3 apoptosis in a concentration-dependent manner”, the mitotic disruption [13] was “observed” and the inhibition of proliferation [14] was “inhibited the proliferation of non-small cell lung cancer cells to a similar level”. The “difference between IC50 of paclitaxel and ONG41008” value ([14]; H358, 72 hours, FIG. 9) was 14 fold, the multinucleation [15] was “observed” and the cell cycle arrest [16] was “arrest of the G1-S-G2 phase”. The IC50 [17] was 15.4 µM, the multinucleation [18] was “observed” and the ROS [19] was “increased in a concentration-dependent manner”. The TP53 nuclear localization ([20]; A549, 1 μM, 24 hours) was “nuclear localization was observed”, the “TP53 protein expression level” value ([20]; A549, 1 μM, 24 hours) was “not changed” and the p16 expression ([20]; A549, 1, 5, 10 and 20 μM, 24 hours) was “up-regulated in proportion to the concentration”. For the same compound, the “p21 expression and localization” value ([20]; A549, 24 hours) was “nuclear localized with upregulation”, the p16 induction ([21]; A549, 24 hours) was “induced in a concentration-dependent manner” and the p21 induction ([21]; A549, 24 hours) was “induced in a concentration-dependent manner”. For the same compound, the “total amount of TP53” value ([21]; A549, 24 hours) was “maintained to be the same”, the TP53 phosphorylation ([21]; A549, various concentrations, 24 hours) was “phosphorylated in proportion to the increase in the concentration” and the “caspase3/7 activity in normal cells” value [22] was “did not induce caspase3/7 activity”. The “time of treatment with the greatest number of multinucleation” value [23] was 48 h, the cell flattening ([23]; 24 hours) was “clearly confirmed” and the multinucleation ([23]; 24 hours) was “multinucleation was also observed”. The “apoptosis in normal cells” value [3] was “did not induce significant apoptosis”, the “cell flatness (morphological change of cell senescence)” value [1] was “specifically observed” and the NAD biosynthesis ([24]; A549) was “increased”. For the same compound, the “NAD/NADH ratio (change)” value ([24]; A549, FIG. 7c) was “significantly increased”, the CDK2 expression [25] was “inhibited” and the CDK6 expression [25] was “inhibited”. For the same compound, the multinucleation [26] was “observed” and the “cell proliferation of normal cells” value [5] was “did not inhibit cell proliferation”.

For `CC(=O)O[C@H]1C(=O)[C@@]2(C)[C@H]([C@H](OC(=O)c3ccccc3)[C@]3(O)C[C@H](OC(=O)[C@H](O)[C@@H](NC(=O)c4ccccc4)c4ccccc4)C(C)=C1C3(C)C)[C@]1(OC(C)=O)CO[C@@H]1C[C@@H]2O` [paclitaxel, reference compound], the IC50 [12] was 84.7 µM and the inhibition of proliferation [14] was “inhibited the proliferation of non-small cell lung cancer cells to a similar level”.
